Measurements: PubChem BioAssay AID2060484 (Molecular Pharmacology Branch, DTP, NCI, 2025)

System: SUM149PT spheroids with HUVEC/MSC, viability
Assay: Anticancer human tumor SUM149PT cell line growth inhibition [GQUAD];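 note: spheroids exposed to drugs for seven days before readout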;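 for viability, T/C: percent viability relative to DMSO vehicle control taken as 100%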
Details: for IC50: curve of first compound; for viability, T/C: stronger effect = lower value
Source text: DNA G-quadruplex Stabilizer Agents in Combinations in Complex Spheroids
A high-throughput screen of multi-cell type tumor spheroids was designed to identify active combinations of DNA G-quadruplex stabilizer agents and targeted small molecules. Complex spheroids include a stromal component modeled by human endothelial cells (HUVEC) and fibroblasts modeled by human mesenchymal stem cells (MSCs). The concentration ranges selected for each drug and investigational agent were based upon clinically achievable concentrations if the clinical Cmax of the agent was known.
Compounds. The drugs and investigational agents: pidnarulex (CX-5461; NSC782164), APTO-253 (NSC789042), BRACO-19 (NSC847499), peposertib (NSC802822), ceralasertib (NSC780249), elimusertib (NSC800525), camonsertib (NSC841442), AZD-1390 (NSC803789), olaparib (NSC753686), talazoparib (NSC767125), ART-558 (NSC835418), sotorasib (NSC818433), MRTX-1133 (NSC836407), SN-38 (NSC673596), topotecan (NSC609699), etoposide (NSC141540), doxorubicin (NSC123127), gemcitabine (NSC613327), 5-fluorouracil (NSC19893), paclitaxel (NSC125973), vemurafenib (NSC761431), panobinostat (NSC761190), R-306465 (JNJ-16241199; NSC773264), adavosertib (NSC754352), TP-3654 (NSC805149), carboplatin (NSC241240), KSQ-4279 (NSC840948), and staurosporine (NSC755774) were obtained from the National Cancer Institute (NCI) Developmental Therapeutics Program Chemical Repository (34). The FDA-approved anticancer drug set is available from the NCI Developmental Therapeutics Program. […] The stock solutions were prepared in dimethyl sulfoxide (DMSO, Sigma-Aldrich, St. Louis, MO, cat. D2650) at 800-fold the tested concentration and stored at -70 degrees C prior to their use. All drugs and investigational agents were tested over a range starting from a high concentration at or near the clinical Cmax and decreasing in half-log increments. If the clinical Cmax for an agent had not been determined, the highest concentration tested was 10 microM.
2.3 Cell Culture. All cells were maintained in an incubator at 37 degrees C and 5% CO2 with 95% humidity. The PDC lines were cultured according to standard operating procedures established by the NCI PDMR. All PDCs were thawed and cultured in Matrigel-coated flasks prepared with a working solution of 1X Ham's F-12 nutrient mix, without supplementation (Invitrogen, cat. 11765054), 100 U/mL penicillin-streptomycin (Invitrogen, cat. 15140122), and 2.5% Matrigel (Corning Inc., cat. 354248) for the first three passages. The 857933-349-R-J2-PDC line was cultured in 6C/Colon 1B media, which includes advanced DMEM/F-12 (Thermo Fisher Scientific, cat. 12634028), 10 mM HEPES (Thermo Fisher Scientific, cat. 15630080), 1X GlutaMAX supplement (Thermo Fisher Scientific, cat. 35050061), 0.1 mg/mL primocin (InvivoGen, cat. ant-pm-2), 10% defined fetal bovine serum, heat inactivated (HyClone Laboratories Inc., cat. SH30070.03HI), 50% L-WRN conditioned media (ATCC, cat. CRL-3276), 1.25 mM N-Acetyl-L-cysteine (Sigma-Aldrich, cat. A9165), 10 mM nicotinamide (Sigma-Aldrich, cat. N0636), 1X B-27 supplement (Thermo Fisher Scientific, cat. 17504044), 1X N-2 supplement (Thermo Fisher Scientific, cat. 17502048), 10 microM Y-27632 dihydrochloride (Tocris Bioscience, cat. 1254), and 50 ng/mL human EGF recombinant protein (Thermo Fisher Scientific, cat. PHG0311). The 485176-168-R4-J1-PDC line was cultured in Panc media, which includes all 6C/Colon 1B media components plus 100 ng/mL human FGF-10 (Thermo Fisher Scientific, cat. 100-26), 500 nM SB-431542 (Selleckchem, cat. S1067), and gastrin (Tocris, cat. 3006).
[…]

[1] = second compound 0.0316 µM, first compound 0.0316 µM
[2] = second compound 0.0316 µM, first compound 0.316 µM
[3] = second compound 0.1 µM, first compound 0.0316 µM
[4] = second compound 0.1 µM, first compound 0.316 µM
[5] = second compound 0.316 µM, first compound 0.0316 µM
[6] = second compound 0.316 µM, first compound 0.316 µM
[7] = second compound 1 µM, first compound 0.0316 µM
[8] = second compound 1 µM, first compound 0.316 µM
[9] = second compound 3.16 µM, first compound 0.0316 µM
[10] = second compound 3.16 µM, first compound 0.316 µM
[11] = second compound 10 µM, first compound 0.0316 µM
[12] = second compound 10 µM, first compound 0.316 µM

In the case of `Cn1ncnc1[C@H]1c2n[nH]c(=O)c3cc(F)cc(c23)N[C@@H]1c1ccc(F)cc1` + CN(C)c1ccc(Nc2c3ccc(NC(=O)CCN4CCCC4)cc3nc3cc(NC(=O)CCN4CCCC4)ccc23)cc1, the IC50 (second compound 0.0316 µM) is reported as greater than 316 nM, the IC50 (second compound 0.1 µM) is reported as greater than 316 nM and the IC50 (second compound 0.316 µM) is reported as greater than 316 nM. For the same compound, the IC50 (second compound 1 µM) was greater than 316 nM, the IC50 (second compound 3.16 µM) was greater than 316 nM and the IC50 (second compound 10 µM) was greater than 316 nM. It also gave a viability, T/C (second compound 0.0316 µM, first compound 0.000999 µM) of 110%, a viability, T/C (second compound 0.0316 µM, first compound 0.00316 µM) of 91.4% and a viability, T/C (second compound 0.0316 µM, first compound 0.00999 µM) of 94.5%. The viability, T/C [1] was 92.1%, the viability, T/C (second compound 0.0316 µM, first compound 0.0999 µM) was 91.9% and the viability, T/C [2] was 69.4%. For the same compound, the viability, T/C (second compound 0.1 µM, first compound 0.000999 µM) was 95%, the viability, T/C (second compound 0.1 µM, first compound 0.00316 µM) was 99.5% and the viability, T/C (second compound 0.1 µM, first compound 0.00999 µM) was 91.5%. For the same compound, the viability, T/C [3] was 89.5%, the viability, T/C (second compound 0.1 µM, first compound 0.0999 µM) was 92.4% and the viability, T/C [4] was 66.6%. It also gave a viability, T/C (second compound 0.316 µM, first compound 0.000999 µM) of 96%, a viability, T/C (second compound 0.316 µM, first compound 0.00316 µM) of 83.4% and a viability, T/C (second compound 0.316 µM, first compound 0.00999 µM) of 98.1%. The viability, T/C [5] was 78.2%, the viability, T/C (second compound 0.316 µM, first compound 0.0999 µM) was 81.1% and the viability, T/C [6] was 64.9%. For the same compound, the viability, T/C (second compound 1 µM, first compound 0.000999 µM) was 87.6%, the viability, T/C (second compound 1 µM, first compound 0.00316 µM) was 88.1% and the viability, T/C (second compound 1 µM, first compound 0.00999 µM) was 77%. The viability, T/C [7] was 81.5%, the viability, T/C (second compound 1 µM, first compound 0.0999 µM) was 81.2% and the viability, T/C [8] was 56.7%. For the same compound, the viability, T/C (second compound 3.16 µM, first compound 0.000999 µM) was 79.3%, the viability, T/C (second compound 3.16 µM, first compound 0.00316 µM) was 89% and the viability, T/C (second compound 3.16 µM, first compound 0.00999 µM) was 80.3%. The viability, T/C [9] was 80.8%, the viability, T/C (second compound 3.16 µM, first compound 0.0999 µM) was 73.8% and the viability, T/C [10] was 56%. The viability, T/C (second compound 10 µM, first compound 0.000999 µM) was 88.9%, the viability, T/C (second compound 10 µM, first compound 0.00316 µM) was 79% and the viability, T/C (second compound 10 µM, first compound 0.00999 µM) was 72.2%. It also gave a viability, T/C [11] of 83.5%, a viability, T/C (second compound 10 µM, first compound 0.0999 µM) of 74.2% and a viability, T/C [12] of 52.3%.
For `Nc1ccn(C2OC(CO)C(O)C2(F)F)c(=O)n1` (centres undefined) + Cc1[nH]c2ccc(F)cc2c1-c1nc2c3cccnc3c3ncccc3c2[nH]1, the IC50 (second compound 0.0316 µM) was 75.8 nM, the IC50 (second compound 0.1 µM) was 83.3 nM and the IC50 (second compound 0.316 µM) was 64.3 nM. For the same compound, the IC50 (second compound 1 µM) was 76.3 nM, the IC50 (second compound 3.16 µM) was 68.4 nM and the IC50 (second compound 10 µM) was 53.5 nM. It also gave a viability, T/C [1] of 82.8%, a viability, T/C (second compound 0.0316 µM, first compound 0.1 µM) of 39.7% and a viability, T/C [2] of 22.1%. For the same compound, the viability, T/C (second compound 0.0316 µM, first compound 1 µM) was 20.7%, the viability, T/C (second compound 0.0316 µM, first compound 3.16 µM) was 17% and the viability, T/C (second compound 0.0316 µM, first compound 10 µM) was 14.1%. For the same compound, the viability, T/C [3] was 69%, the viability, T/C (second compound 0.1 µM, first compound 0.1 µM) was 46.4% and the viability, T/C [4] was 19%. For the same compound, the viability, T/C (second compound 0.1 µM, first compound 1 µM) was 17.5%, the viability, T/C (second compound 0.1 µM, first compound 3.16 µM) was 16% and the viability, T/C (second compound 0.1 µM, first compound 10 µM) was 13.9%. The viability, T/C [5] was 70.4%, the viability, T/C (second compound 0.316 µM, first compound 0.1 µM) was 37.5% and the viability, T/C [6] was 21.6%. For the same compound, the viability, T/C (second compound 0.316 µM, first compound 1 µM) was 18.7%, the viability, T/C (second compound 0.316 µM, first compound 3.16 µM) was 17.5% and the viability, T/C (second compound 0.316 µM, first compound 10 µM) was 12%. It also gave a viability, T/C [7] of 77.1%, a viability, T/C (second compound 1 µM, first compound 0.1 µM) of 41.1% and a viability, T/C [8] of 24.7%. It also gave a viability, T/C (second compound 1 µM, first compound 1 µM) of 21%, a viability, T/C (second compound 1 µM, first compound 3.16 µM) of 17.1% and a viability, T/C (second compound 1 µM, first compound 10 µM) of 12.1%. It also gave a viability, T/C [9] of 75.8%, a viability, T/C (second compound 3.16 µM, first compound 0.1 µM) of 37.5% and a viability, T/C [10] of 20.8%. For the same compound, the viability, T/C (second compound 3.16 µM, first compound 1 µM) was 18.7%, the viability, T/C (second compound 3.16 µM, first compound 3.16 µM) was 15.3% and the viability, T/C (second compound 3.16 µM, first compound 10 µM) was 12%. It also gave a viability, T/C [11] of 62.8%, a viability, T/C (second compound 10 µM, first compound 0.1 µM) of 35.3% and a viability, T/C [12] of 19.9%. It also gave a viability, T/C (second compound 10 µM, first compound 1 µM) of 22.1%, a viability, T/C (second compound 10 µM, first compound 3.16 µM) of 15.6% and a viability, T/C (second compound 10 µM, first compound 10 µM) of 11.6%.
